Source: patent US8273337B2, “Hair binding peptides and peptide-based hair reagents for personal care” (Affinergy Inc., priority 2007, dated 2012)

Assays:
90% gray hair [1] = assay: ELISA hair-binding activity of biotinylated peptides on hair bundles; parameters: species or system human; details: 20 μM biotinylated peptide in TBST and 1 mg/mL BSA, 1 hour at room temperature, 90% gray hair bundles, streptavidin-HRP detection; mean of at least three replicates
Description: Enzyme-linked immunosorbent assay (ELISA) was used to evaluate the hair-binding affinity of the biopanning selected peptide candidates (Example 1; biotinylated peptides SEQ ID NOs: 25, 27, 29, 30, and 32). The identified peptides along with a positive control peptide Gray3 (given as SEQ ID NO: 34; previously reported in co-pending U.S. patent application Ser. No. 11/251,715 corresponding to U.S. Patent Application Publication No. 2006/0073111) were synthesized using standard solid […] synthesis method (U.S. Ser. No. 11/251/715).
The resulting absorbance values, reported as the mean of at least three replicates, and the standard error of the mean (SEM) are given in Table 3.

90% gray hair [2] = details: substrate 90% gray hair; peptide concentration giving 50% of the maximum ELISA signal; calculated from Scatchard plots
Description: (§1) The MB50 provides an indication of the strength of the binding interaction or affinity of the components of the complex.
as §1
The hair samples were assembled in bundles consisting of 100 hairs about 1 cm long which were bundled together using narrow tape at one end. […] Peptide binding buffer consisting of various concentrations of biotinylated peptide in TBST and 1 mg/mL BSA was added to the hair bundles and incubated for 1 hour at room temperature, followed by 6 TBST washes. […] The results were plotted as A450 versus the concentration of peptide using GraphPad Prism 4.0 (GraphPad Software, Inc., San Diego, Calif.).

Substance	Hair A405 nm (90% gray hair [1])	MB50 (90% gray hair [2]) [nM]
EGASVASASDSVDSSYYSR-GSSGK (biotin) [Aff15017]	0.184	
Gray3: positive control hair-binding peptide previously reported in U.S. Patent Application Publication No. 2006/0073111 (HDHKNQKETHQRHAA; Hair-binding peptide) [reference compound]	0.448	
SRKSSQKNPHHPKPPKKPTAR-GSSGK (biotin) [Aff15014]	0.871	33
SSEGASVASASDSVDSSYYSRKSSQKNPHHPKPPKKPTAR-GSSGK (biotin) [Aff15023]	0.66	
SSNDSNVSWFHYYASGLTSSR-GSSG-SRKSSQKNPHHPKPPKKPTAR-GSSGK (biotin) [Aff15025]	0.86	
VRPNLHRKAKAKPDHKQSENRKVPFYSH-GSSGK (biotin) [Aff15012]	0.873	24
